The values that follow come from ChEMBL document CHEMBL1201862, “PubChem BioAssay data set” (2004).

The target in assay [1] is Metabotropic glutamate receptor 4 (Homo sapiens, UniProt Q14833). Description: Modulation of the Metabotropic Glutamate Receptor mGluR4: Potency at human mGluR4. Modulation of intracellular Ca2+ using Fluo-4, AM, in CHO expressing recombinant receptor [Related pubchem assays (depositor defined):AID2437, AID2807]. The class given is functional, cell-based.
Assay [2] has as its target Metabotropic glutamate receptor 4 (Rattus norvegicus, UniProt P31423). Put plainly: Modulation of the Metabotropic Glutamate Receptor mGluR4: Rat PAM Potency. [Related pubchem assays (depositor defined):AID2437, AID2807]. The class given is functional.
For assay [3], the system named is HEK293. Description: NOD2 signaling inhibitors in MDP-stimulated cells, cell-based, uHTS, luminescence (AID 2001). Particulars: Homo sapiens. The class given is functional.
Assay [4] deals with HEK293. Put plainly: cells. The assay is classed as functional, cell-based. As to conditions: Homo sapiens.
The test system of assay [5] is HEK293. Description: inhibition of NOD1-driven NF-kB reporter – cell-based, luminescence, uHTS, primary screen (AID 1578). The assay is classed as functional. Particulars: Homo sapiens.
For assay [6], the system named is HEK293. Put plainly: cells. As to conditions: Homo sapiens.
Assay [7] deals with T1, Nucleotide-binding oligomerization domain-containing protein 1 (Homo sapiens, UniProt Q9Y239).
T1 sequence (Q9Y239 whole entry): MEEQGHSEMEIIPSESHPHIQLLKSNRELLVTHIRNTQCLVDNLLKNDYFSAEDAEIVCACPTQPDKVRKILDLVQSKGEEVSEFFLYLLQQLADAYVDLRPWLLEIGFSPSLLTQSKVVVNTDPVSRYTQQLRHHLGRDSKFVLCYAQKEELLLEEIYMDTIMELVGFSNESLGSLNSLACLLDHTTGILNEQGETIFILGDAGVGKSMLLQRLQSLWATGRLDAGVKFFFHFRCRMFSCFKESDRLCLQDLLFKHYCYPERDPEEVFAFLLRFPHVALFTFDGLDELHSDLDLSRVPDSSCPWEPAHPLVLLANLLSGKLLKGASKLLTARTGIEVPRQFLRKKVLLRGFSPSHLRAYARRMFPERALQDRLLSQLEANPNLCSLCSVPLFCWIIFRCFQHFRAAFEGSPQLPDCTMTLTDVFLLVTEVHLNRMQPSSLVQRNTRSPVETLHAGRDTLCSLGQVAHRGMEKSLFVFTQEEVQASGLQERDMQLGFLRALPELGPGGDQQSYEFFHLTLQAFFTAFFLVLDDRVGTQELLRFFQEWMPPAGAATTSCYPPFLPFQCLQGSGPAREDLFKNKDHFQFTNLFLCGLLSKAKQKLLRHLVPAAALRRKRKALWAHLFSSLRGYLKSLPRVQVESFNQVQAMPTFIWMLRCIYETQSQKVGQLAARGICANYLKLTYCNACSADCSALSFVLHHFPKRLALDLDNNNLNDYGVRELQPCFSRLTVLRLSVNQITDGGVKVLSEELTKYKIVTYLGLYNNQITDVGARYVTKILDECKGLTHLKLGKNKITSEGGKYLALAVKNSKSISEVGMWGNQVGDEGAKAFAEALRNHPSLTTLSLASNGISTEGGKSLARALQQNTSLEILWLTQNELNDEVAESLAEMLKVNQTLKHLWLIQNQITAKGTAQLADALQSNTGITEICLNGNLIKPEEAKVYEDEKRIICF
Put plainly: blockers of NOD1 pathway activity – revised, SAR follow-up (AID 2333). The class given is functional.

The target in assay [8] is Nucleotide-binding oligomerization domain-containing protein 2 (Homo sapiens, UniProt Q9HC29). Put plainly: PubChem AID 2334. The assay is classed as functional.
Assay [9] concerns HEK293. Put plainly: cells. The class given is functional, cell-based. Particulars: Homo sapiens. The source holds these as a separate data set.
The next assay deals with Tumor necrosis factor (Homo sapiens, UniProt P01375). Put plainly: analog potency on TNFa NF-kB signaling – cell-based, revised, SAR follow-up (AID 2337). The class given is functional.
For assay [10], the target named is T2, Voltage-dependent T-type calcium channel subunit alpha-1H (Homo sapiens, UniProt O95180). Description: Inhibitors of T-Type Calcium Channels. [Related pubchem assays (depositor defined):AID449739, AID463087, AID489005, AID493041, AID504579, AID504584, AID504619, AID504628]. The assay is classed as functional.
T2 sequence (O95180 whole entry): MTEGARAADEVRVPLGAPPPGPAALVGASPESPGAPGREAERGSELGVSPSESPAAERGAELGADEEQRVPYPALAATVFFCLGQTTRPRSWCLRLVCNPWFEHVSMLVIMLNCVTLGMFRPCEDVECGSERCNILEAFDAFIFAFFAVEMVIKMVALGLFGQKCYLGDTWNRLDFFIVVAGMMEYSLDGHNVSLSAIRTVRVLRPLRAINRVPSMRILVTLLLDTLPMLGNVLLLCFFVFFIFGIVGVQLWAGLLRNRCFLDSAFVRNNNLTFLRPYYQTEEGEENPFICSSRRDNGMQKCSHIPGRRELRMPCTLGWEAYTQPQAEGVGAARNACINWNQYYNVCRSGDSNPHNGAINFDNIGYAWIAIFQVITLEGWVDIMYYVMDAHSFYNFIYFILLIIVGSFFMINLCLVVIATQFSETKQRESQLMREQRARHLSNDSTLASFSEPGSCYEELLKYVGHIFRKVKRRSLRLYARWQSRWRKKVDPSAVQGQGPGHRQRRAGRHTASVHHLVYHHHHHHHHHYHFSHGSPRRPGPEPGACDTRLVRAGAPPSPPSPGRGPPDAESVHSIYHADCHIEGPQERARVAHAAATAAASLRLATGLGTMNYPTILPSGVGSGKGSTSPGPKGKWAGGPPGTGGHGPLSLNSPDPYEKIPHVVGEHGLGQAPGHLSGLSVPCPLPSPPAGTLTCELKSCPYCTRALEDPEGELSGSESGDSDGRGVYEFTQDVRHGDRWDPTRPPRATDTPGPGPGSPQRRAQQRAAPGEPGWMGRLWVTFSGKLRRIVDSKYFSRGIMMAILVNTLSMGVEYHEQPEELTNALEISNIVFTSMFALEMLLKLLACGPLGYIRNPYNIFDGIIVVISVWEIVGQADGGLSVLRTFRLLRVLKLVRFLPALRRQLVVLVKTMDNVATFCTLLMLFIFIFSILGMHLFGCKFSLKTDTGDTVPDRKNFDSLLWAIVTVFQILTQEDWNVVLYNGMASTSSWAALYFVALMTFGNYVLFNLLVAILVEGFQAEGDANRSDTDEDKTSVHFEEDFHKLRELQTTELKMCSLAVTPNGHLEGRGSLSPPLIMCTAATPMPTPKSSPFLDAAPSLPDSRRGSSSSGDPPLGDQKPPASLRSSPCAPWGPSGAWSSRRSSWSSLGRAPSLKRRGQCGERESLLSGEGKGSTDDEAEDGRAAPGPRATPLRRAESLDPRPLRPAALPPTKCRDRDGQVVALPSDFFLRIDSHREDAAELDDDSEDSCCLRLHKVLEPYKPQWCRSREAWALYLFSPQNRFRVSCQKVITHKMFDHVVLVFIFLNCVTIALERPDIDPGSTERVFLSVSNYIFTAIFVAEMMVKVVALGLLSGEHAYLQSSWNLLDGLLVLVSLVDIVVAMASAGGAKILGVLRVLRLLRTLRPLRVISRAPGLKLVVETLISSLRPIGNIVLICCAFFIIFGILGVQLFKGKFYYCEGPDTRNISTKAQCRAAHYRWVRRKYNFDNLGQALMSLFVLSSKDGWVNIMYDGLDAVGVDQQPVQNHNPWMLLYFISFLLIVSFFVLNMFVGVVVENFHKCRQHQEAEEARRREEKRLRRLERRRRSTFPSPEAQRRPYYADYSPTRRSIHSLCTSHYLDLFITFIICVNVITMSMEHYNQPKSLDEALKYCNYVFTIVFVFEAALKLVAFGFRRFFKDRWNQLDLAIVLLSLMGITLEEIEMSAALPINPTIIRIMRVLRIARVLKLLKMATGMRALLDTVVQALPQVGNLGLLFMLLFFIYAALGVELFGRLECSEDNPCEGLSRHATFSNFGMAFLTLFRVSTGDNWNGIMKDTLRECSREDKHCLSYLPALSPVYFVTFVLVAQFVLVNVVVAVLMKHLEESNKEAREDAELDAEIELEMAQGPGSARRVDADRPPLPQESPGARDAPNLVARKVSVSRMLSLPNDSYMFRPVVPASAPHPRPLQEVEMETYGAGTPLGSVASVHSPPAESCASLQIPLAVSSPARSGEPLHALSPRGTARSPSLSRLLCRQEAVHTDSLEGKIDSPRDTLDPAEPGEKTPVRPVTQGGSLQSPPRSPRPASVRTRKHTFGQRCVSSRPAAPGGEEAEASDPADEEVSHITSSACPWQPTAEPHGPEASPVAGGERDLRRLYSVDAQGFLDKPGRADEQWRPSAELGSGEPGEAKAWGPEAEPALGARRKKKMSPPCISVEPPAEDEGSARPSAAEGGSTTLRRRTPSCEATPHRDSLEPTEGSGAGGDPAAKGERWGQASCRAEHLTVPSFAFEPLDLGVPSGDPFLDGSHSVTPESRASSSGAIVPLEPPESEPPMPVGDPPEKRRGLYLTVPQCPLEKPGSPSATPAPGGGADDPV
Assay [11] has as its target T2, Voltage-dependent T-type calcium channel subunit alpha-1H. The class given is functional.
Assay [12] has as its target T3, Dual specificity protein phosphatase 3 (Homo sapiens, UniProt P51452). Description: SAR VHR1 Fluorescent Assay for In Vitro dose response studies. [Related pubchem assays (depositor defined):AID1654, AID1661, AID1878, AID1992, AID2004, AID2070, AID2085]. The assay is classed as functional.
The target of assay [13] is T3, Dual specificity protein phosphatase 3. Description: SAR VHR1 absorbance Assay for In Vitro dose response studies. [Related pubchem assays (depositor defined):AID1654, AID1661, AID1878, AID1992, AID2004].
Assay [14] addresses T4, Dual specificity protein phosphatase 6 (Rattus norvegicus, UniProt Q64346).
T4 sequence (Q64346 whole entry): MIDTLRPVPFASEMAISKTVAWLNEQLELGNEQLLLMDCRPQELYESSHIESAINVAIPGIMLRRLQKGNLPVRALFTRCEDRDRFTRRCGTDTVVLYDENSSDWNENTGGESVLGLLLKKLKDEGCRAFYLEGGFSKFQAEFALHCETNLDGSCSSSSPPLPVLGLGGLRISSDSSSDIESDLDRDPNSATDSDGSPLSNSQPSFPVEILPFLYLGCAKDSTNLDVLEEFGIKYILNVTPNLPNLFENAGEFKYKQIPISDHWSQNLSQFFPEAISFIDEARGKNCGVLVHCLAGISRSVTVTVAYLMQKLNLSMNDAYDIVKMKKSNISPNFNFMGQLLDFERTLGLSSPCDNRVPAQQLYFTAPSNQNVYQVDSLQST
The assay is classed as functional.

For assay [15], the target named is T5, Tyrosine-protein phosphatase non-receptor type 7 (Homo sapiens, UniProt P35236).
T5 sequence (P35236 whole entry): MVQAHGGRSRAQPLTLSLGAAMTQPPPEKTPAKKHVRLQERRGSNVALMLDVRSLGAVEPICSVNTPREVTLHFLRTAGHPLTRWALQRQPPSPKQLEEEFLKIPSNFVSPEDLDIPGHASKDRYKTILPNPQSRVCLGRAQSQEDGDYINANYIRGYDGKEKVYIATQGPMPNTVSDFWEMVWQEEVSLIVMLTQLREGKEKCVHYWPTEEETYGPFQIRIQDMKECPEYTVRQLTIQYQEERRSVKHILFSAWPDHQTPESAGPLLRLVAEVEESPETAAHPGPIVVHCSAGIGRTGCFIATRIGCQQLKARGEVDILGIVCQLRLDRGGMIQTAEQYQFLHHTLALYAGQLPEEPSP
Description: redox-active compounds inhibiting HePTP phosphatase – biochemical, fluorescence, mechanism study (AID 2068). The assay is classed as functional.

For assay [16], the target named is NACHT, LRR and PYD domains-containing protein 3 (Homo sapiens, UniProt Q96P20). Put plainly: NALP3 inhibitors in yeast, dose response, luminescent (AID 488799). The class given is functional.
Assay [17] has as its target Multidrug resistance protein CDR1 (Candida albicans, UniProt P43071). Description: inhibition of Nile Red efflux via Candida CDR1 – S. cerevisiae AD1-8u, singleplex, Cherry Pick1 hits, dose response (AID 588606). The assay is classed as functional.
In assay [18] the target is Neuropeptides B/W receptor type 1 (Homo sapiens, UniProt P48145). Put plainly: human NPBW1 receptor blockade, IC50 – cell-based, fluorescence, dose response, late-stage follow-up (AID 463251). The class given is functional.
For assay [19], the target named is Melanin-concentrating hormone receptor 1 (Homo sapiens, UniProt Q99705). Put plainly: Late-stage fluorescence-based counterscreen for antagonists of the G-protein coupled receptor 7 (GPR7): cell-based dose response assay to identify antagonists of the melanin-concentrating hormone receptor 1 (MCHR1). [Related pubchem assays (depositor defined):AID1861, AID1880, AID1952, AID2148, AID2251, AID2257, AID485339]. The class given is functional. For orientation: A counterscreen serves to expose hits that act by an unwanted route or on another target.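 Also: stimulated with 30 nM MCH peptide agonist.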

Assay [20] in a line: protection from phage-mediated lysis, alamar blue read-out – E. coli UTI89, K1F phage, bacterial capsule biogenesis inhibitors (AID 488966). The class given is functional.
A further assay deals with Large T antigen (Simian virus 40, UniProt P03070). The assay is classed as functional, Betapolyomavirus macacae.
For a further assay, the target named is X-box-binding protein 1 (Homo sapiens, UniProt P17861). The class given is functional, Cricetulus griseus.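 Also: confirmatory dose-response counter-screen serving a CHOP assay.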
The target of assay [21] is T4, Dual specificity protein phosphatase 6. Description: inhibition of rat DUSP6 enzyme activity – biochemical, in vitro, primary screen (AID 425).
In assay [22] the target is Induced myeloid leukemia cell differentiation protein Mcl-1 (Homo sapiens, UniProt Q07820). The assay is classed as functional.
Chain of Induced myeloid leukemia cell differentiation protein Mcl-1 (Q07820 whole entry): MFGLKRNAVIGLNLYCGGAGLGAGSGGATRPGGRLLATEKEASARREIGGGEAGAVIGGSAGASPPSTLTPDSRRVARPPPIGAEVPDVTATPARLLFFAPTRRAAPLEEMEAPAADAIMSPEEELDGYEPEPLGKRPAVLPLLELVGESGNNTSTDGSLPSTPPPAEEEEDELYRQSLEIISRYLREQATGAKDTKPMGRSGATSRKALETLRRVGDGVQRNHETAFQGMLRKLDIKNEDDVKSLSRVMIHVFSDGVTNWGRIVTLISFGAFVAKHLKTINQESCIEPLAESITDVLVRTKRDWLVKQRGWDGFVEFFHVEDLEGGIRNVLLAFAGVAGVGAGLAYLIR
Assay [23] has as its target T4, Dual specificity protein phosphatase 6.
The target of assay [24] is T6, Estrogen receptor beta (Homo sapiens, UniProt Q92731).
T6 sequence (Q92731 whole entry): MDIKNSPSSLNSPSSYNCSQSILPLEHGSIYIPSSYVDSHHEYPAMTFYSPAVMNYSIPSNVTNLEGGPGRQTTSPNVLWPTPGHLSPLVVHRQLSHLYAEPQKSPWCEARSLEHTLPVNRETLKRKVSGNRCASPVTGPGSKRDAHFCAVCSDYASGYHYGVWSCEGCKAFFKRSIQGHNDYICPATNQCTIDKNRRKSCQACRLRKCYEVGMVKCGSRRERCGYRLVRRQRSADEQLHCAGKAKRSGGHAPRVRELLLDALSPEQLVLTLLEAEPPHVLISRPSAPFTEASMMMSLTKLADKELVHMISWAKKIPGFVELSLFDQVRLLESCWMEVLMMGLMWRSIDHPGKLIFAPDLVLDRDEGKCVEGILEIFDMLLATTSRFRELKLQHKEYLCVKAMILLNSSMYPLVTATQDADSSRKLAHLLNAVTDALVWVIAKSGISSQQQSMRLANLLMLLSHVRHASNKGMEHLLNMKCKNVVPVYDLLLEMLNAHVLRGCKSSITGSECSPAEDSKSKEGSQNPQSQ
The target of assay [25] is Glyceraldehyde-3-phosphate dehydrogenase (Homo sapiens, UniProt P04406).
Assay [26] has as its target T6, Estrogen receptor beta. Put plainly: blockers of SRC-3 recruitment to ERβ – biochemical, ELISA, streptavidin-HRP readout, orthogonal assay, confirmation (AID 1060). On the technique in general: An ELISA detects its analyte on a solid surface through an enzyme-linked reagent.
In assay [27] the target is T5, Tyrosine-protein phosphatase non-receptor type 7. The assay is classed as functional.
A further assay has as its target T7, Estrogen receptor (Homo sapiens, UniProt P03372).
T7 sequence (P03372 whole entry): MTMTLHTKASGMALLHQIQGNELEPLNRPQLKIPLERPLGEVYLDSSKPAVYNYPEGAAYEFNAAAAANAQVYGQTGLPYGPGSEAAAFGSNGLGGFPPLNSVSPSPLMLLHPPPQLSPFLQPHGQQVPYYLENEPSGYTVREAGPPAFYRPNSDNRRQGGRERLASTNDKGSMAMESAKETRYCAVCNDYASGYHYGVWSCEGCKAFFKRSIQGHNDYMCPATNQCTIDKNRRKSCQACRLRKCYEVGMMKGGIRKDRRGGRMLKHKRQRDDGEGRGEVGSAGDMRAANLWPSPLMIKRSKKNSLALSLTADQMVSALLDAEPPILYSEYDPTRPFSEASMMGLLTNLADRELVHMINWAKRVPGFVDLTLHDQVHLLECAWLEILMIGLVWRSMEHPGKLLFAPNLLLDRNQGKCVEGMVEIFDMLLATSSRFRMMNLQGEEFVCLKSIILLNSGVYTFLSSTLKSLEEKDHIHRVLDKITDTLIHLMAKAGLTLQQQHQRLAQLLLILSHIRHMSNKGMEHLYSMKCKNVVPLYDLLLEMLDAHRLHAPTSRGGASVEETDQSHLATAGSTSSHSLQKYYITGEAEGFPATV

For the next assay, the target named is Ephrin type-A receptor 4 (Mus musculus, UniProt Q03137). Put plainly: EphA4 ligand-binding antagonists – biochemical, colorimetric, mouse EphA4, primary screen (AID 689). The assay is classed as functional.
A further assay deals with Bcl-2-like protein 10 (Homo sapiens, UniProt Q9HD36). Description: Bcl-B/TR3 peptide binding disruption – biochemical, fluorescence polarization, FITC-TR3 peptide, selectivity assay for Bfl-1 inhibitor project, primary screen (AID 748).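 Also: fluorescence polarization from a fluorescein-labelled TR3 peptide binding purified Bcl-B.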 In general terms: In fluorescence polarisation assays a small probe gives low polarisation when free and higher when bound to something large.

Active and inactive are the calls of the source.

T3 sequence (P51452 whole entry): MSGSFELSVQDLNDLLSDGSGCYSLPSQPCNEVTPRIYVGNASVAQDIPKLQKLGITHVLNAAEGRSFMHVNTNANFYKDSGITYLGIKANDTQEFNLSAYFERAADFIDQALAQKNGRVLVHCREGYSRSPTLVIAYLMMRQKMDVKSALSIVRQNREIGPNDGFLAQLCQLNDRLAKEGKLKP
Chain of Multidrug resistance protein CDR1 (P43071 whole entry, looked up): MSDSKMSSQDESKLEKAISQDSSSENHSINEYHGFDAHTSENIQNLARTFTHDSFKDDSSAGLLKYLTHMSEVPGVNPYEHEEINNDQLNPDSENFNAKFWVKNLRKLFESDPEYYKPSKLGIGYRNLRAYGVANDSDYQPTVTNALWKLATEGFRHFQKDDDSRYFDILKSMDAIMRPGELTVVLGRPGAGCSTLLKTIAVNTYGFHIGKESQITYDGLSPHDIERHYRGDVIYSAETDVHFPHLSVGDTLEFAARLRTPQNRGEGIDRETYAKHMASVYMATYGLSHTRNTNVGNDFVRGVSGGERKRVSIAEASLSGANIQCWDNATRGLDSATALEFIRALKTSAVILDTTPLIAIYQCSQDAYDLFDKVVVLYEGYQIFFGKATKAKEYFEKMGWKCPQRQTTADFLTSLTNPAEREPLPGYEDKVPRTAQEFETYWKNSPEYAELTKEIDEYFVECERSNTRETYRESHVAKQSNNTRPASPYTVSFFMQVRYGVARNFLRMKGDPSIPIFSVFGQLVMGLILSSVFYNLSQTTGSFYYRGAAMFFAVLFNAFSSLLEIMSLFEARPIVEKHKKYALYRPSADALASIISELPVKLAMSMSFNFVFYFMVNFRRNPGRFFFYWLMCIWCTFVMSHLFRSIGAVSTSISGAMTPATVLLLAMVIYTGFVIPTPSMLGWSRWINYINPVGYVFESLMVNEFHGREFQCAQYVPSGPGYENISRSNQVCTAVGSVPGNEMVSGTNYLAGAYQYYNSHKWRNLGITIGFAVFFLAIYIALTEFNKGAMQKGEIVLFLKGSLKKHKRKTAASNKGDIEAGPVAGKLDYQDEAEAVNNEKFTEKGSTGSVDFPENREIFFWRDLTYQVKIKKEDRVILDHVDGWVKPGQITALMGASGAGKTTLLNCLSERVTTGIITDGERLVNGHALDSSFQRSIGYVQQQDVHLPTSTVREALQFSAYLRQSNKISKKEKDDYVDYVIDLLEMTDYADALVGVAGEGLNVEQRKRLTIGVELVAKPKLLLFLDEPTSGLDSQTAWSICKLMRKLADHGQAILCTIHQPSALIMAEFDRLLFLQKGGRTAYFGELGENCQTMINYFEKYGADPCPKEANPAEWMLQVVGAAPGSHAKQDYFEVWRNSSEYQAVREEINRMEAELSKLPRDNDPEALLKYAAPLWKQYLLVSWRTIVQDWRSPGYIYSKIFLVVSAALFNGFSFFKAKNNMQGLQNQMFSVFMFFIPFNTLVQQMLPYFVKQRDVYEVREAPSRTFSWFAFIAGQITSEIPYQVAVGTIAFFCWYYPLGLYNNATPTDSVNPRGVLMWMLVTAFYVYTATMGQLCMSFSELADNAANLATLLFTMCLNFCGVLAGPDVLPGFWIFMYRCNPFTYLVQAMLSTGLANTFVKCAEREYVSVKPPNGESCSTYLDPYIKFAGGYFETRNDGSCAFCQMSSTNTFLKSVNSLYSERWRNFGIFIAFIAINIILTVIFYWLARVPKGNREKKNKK

On to `CC1(C)CC(=O)N(c2ccc(NC(=O)c3ccccn3)cc2Cl)C1=O`, for which the EC50 in assay [1] was 1.48 µM (active); in assay [2] it was 2.32 µM (active).

With `CC1CCc2c(sc(NC(=O)c3cccs3)c2C(=O)O)C1` (centres undefined), the IC50 (with HEK293 [3]; with HEK293 [4]; in the assay with HEK293 [6]; in assay [7]; in assay [8]; in the assay with HEK293 [9]) was > 20 µM (inactive) in each case. For the same compound, the IC50 on Tumor necrosis factor was > 20 µM (inactive). Also, the EC50 with HEK293 [5] is > 20 µM (inactive).

Take `O=C(Nc1ccccc1)c1ccccc1NS(=O)(=O)c1ccc(Cl)s1`: the EC50 in assay [10] was 808 nM (active); in assay [11], 1.05 µM (active).

For the compound `S=C(NCc1ccccc1)c1cn(CCOc2ccccc2)c2ccccc12`, the IC50 in assay [12], in [13], in [14] and in assay [15] was > 100 µM (inactive) in each case.

For `CCC1Nc2ncnc(N3CCN(c4ccccn4)CC3)c2N(Cc2ccc(Br)cc2)C1=O` (centres undefined), the IC50 in assay [16] was 3.71 µM (active). Also, the EC50 in [17] was 12.4 µM (active).

With `CC(=O)OCc1ccc(Oc2c(Cl)cnn(-c3ccc(C(C)C)cc3)c2=O)cc1`, the 50% inhibitory concentration (IC50) was 1.6 µM (active) in assay [18] and 3.5 µM (active) in [19].

On to `COc1ccc(NC2SC(=O)N(C)C2=O)cc1` (centres undefined), for which the IC50 is > 300 µM (active) in assay [20] and 80.8 µM (active) on Large T antigen.

In the case of `Cc1ccc(-c2ccc(/C=C(\C#N)C(=O)Nc3cc(C)nn3-c3ccccc3)o2)cc1`, the “Absolute IC50 (XBP1)” value on X-box-binding protein 1 worked out at 10 µM.

For the compound `COc1ccc(N2Cc3cccc(C(=O)O)c3C2=O)cc1`, the IC50 in [21] is > 10 µM (not active); in assay [22] it was 4.43 µM (active); in assay [23], > 100 µM (inactive); at Estrogen receptor beta [24], 2.15 µM (active); in assay [25], > 100 µM (not active); on Estrogen receptor beta [26] it was 704 nM (not active). Also, the IC50 in [14] was > 100 µM (inactive); in assay [27], > 100 µM (not active); on Estrogen receptor, 12 µM (active); at Ephrin type-A receptor 4 it was 9.05 µM (active); at Bcl-2-like protein 10, 4.06 µM (active).

As usually defined, the EC50 is the concentration giving half of the maximal effect. A word on the IC50: it is the midpoint of a concentration-inhibition curve.
